Assay results from patent US20260256790A1, “DEBIO-0123 IN COMBINATION WITH TEMOZOLOMIDE AND RADIOTHERAPY FOR USE IN TREATING GLIOMA” (Debiopharm International S.A., priority 2023, published 2026).

Test system: T98G GBM cell line
Assay: Colony formation with radiotherapy, T98G
Assay type: cell-based
Conditions: 0.1 μM to 5.0 μM, irradiated at 1, 2 and 4 Gy, p<0.0001
Procedure: GBM tumor cells (T98G, LN18, SNB-19 and U251) were grown as an adherent monolayer at 37° C. in a humidified atmosphere (5% CO2, 95% air). For experimental use, tumor cells were detached from culture flasks by a 5-minute treatment with trypsin-versene, in Hanks' medium without calcium or magnesium and neutralized by addition of complete culture medium. Cells were counted and viability assessed using a 0.25% trypan blue exclusion assay. All cell lines were appropriately seeded following the conditions for monolayer colony formation in 6-well plates (Ref #152795, Nunc, Dutscher) in 1.9 ml of cell culture medium, at 3 densities for evaluation of a proclonogenic effect. […]
Treatments were performed at 24 hours (D1) after seeding by addition of ×20 concentrated compound or vehicle solutions, to obtain final concentrations of 0.1 μM to 5.0 μM of Compound of formula (I) [referred to as CoF (I) in FIG. 3]. […] After 14 days of incubation, colonies were counted after being stained through incubation with 500 μl of a solution of water containing 0.05% (w/v) of methylene blue (Ref. M4159, Sigma) for 2 hours. Colonies were counted using a colony counter pen (Ref #045855, Dutscher, Brumath, France). The Surviving Fraction was calculated for each condition using the equations described below and plotted on a semi-logarithmic graph using the Linear-Quadratic model. […]

Cc1cc(Nc2ncc3c(n2)N(C)CN(c2c(Cl)cccc2Cl)C3=O)ccc1C1CCN(C)CC1 [Compound of formula (I)]
Effect on radiotherapy (surviving fraction, colony formation): significantly increased effect of radiotherapy
